According to patent US20260176289A1, “SMALL MOLECULE INHIBITORS OF KRAS PROTEINS” (Merck Sharp & Dohme LLC, priority 2022, published 2026):
Where two headings read alike, the source gives them in different places.

Key:
MKN-1 cells = assay: Cellular phospho-ERK assay, MKN-1 cells (amplified wild-type KRAS); format: cell-based; settings: Homo sapiens, read-out: MKN1 pERK IC50
Method: (§1) Procedure for Cellular Phospho-ERK Assay in KRAS Wild Type and Mutant (G12D, G12V) Cell Lines
(§2) MKN-1 cells (JCRB JCRB0252) containing amplified wild-type KRAS, were cultured in growth medium that contains RPMI 1640-GlutaMAX™-I (ThermoFisher Scientific 61870) containing 10% heat inactivated fetal bovine serum (ThermoFisher Scientific 10091148), 1 mM sodium pyruvate and 10 mM HEPES. PANC08.13 cells (ATCC® CRL-2551™), containing homozygous KRAS-G12D activating mutation, were cultured in growth medium made of RPMI1640-GlutaMAX™-I (ThermoFisher Scientific 61870) containing 15% heat inactivated fetal bovine serum (ThermoFisher Scientific 10091148)). AsPC-1 cells (ATCC® CRL-1682™), containing homozygous KRAS-G12D activating mutation, were cultured in T150 flask in growth medium (RPMI medium 1640-GlutaMAX™-I (ThermoFisher Scientific 61870) containing 10% fetal bovine serum (ThermoFisher Scientific 10091148)). SW620 cells (ATCC® […]), containing homozygous KRAS-G12V activating mutation, were cultured in growth medium that contains RPMI 1640-GlutaMAX™-I (ThermoFisher Scientific 61870) containing 10% heat inactivated fetal bovine serum (ThermoFisher Scientific 10091148).
(§3) Cells for the assay were harvested in growth medium after TrypLE (ThermoFisher scientific 12604021) digestion and were seeded in a 384-well collagen coated cell culture plate (Corning 356702) at a density of 10,000-15,000 cells/20 μL/well, and incubated at 37° C., 5% CO2 overnight. The compound (with 10 mM stock concentration) dose-response titrations were prepared [30 μM final ERK detection assay concentration and 1:3 dilutions, 10-point dose response] and appropriate amounts (270 nL) of test compounds were dispensed in a 384-well intermediate plate using an Echo 550 liquid handler. 30 μL/well of RPMI medium 1640-GlutaMAX™—I was added to the intermediate plate and the contents of the intermediate plate (10 μL/well) were then transferred to the 384-well collagen coated cell culture plate, which was incubated at 37° C., 5% CO2 for 2 hours. After removal of medium from the collagen coated cell culture plate, cells were lysed in lysis buffer from Alpha SureFire® Ultra™ Multiplex p-ERK and total ERK assay kit (PerkinElmer MPSU-PTERK) containing Halt™ Protease and Phosphatase inhibitor cocktail (ThermoFisher Scientific 78446) at room temperature with constant shaking at 300 rpm for 30 minutes. The cell lysates were then transferred to an OptiPlate-384 plate (PerkinElmer 6005620), and the phosphorylation of ERK (p-ERK) and total ERK levels were detected by Alpha SureFire® Ultra™ Multiplex p-EEK kit and total ERK assay kit (PerkinElmer MPSU-PTERK) following the manufacturer's protocol. Assay plates were read on a En Vision Multimode Plate Reader (PerkinElmer), and the ratio of p-ERK vs. total ERK in each well was used as the final readout. Dose response curves were analyzed using a 4-parameter logistic model to calculate IC50 values using Spotfire software.

SW620 cells = assay: Cellular phospho-ERK assay, SW620 cells (homozygous KRAS-G12V); format: cell-based; settings: Homo sapiens, read-out: SW620 pERK IC50
Method: as §1, §2, §3

KRAS-G12V = KRAS-G12V (Homo sapiens, UniProt P01116, G12V); assay: SOS-catalyzed nucleotide exchange assay (Procedure A, TR-FRET), KRAS-G12V; format: biochemical; settings: nucleotide exchange, read-out: KRAS G12V GNE IC50
Method in brief: (§4)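 Inhibitors stabilizing the Bodipy-GDP state are detected as retained TR-FRET from a preformed biotinylated RAS/Tb-streptavidin complex. They are preincubated 60 min at room temperature, then human SOS and 3 mM GTP are added. G12V runs 90 min at 1.25 nM RAS/160 nM SOS. G12C (3 nM), WT (1 nM) and NRAS (1.25 nM) run 60 min with 40 nM SOS.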

KRAS-WT = KRAS-WT (Homo sapiens, UniProt P01116); assay: SOS-catalyzed nucleotide exchange assay (Procedure A, TR-FRET), KRAS-WT; format: biochemical; settings: nucleotide exchange, read-out: KRAS WT GNE IC50
Method in brief: as §4

AsPC-1 cells = assay: Cellular phospho-ERK assay, AsPC-1 cells (homozygous KRAS-G12D); format: cell-based; settings: Homo sapiens, ASPC1, 2 h, read-out: AsPC1 pERK IC50
Method in brief: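 10k–15k cells/well, o/n attach; cpd 2 h, 37 °C, 10-pt 1:3 from 30 μM final; lyse with protease/phosphatase inhibitors 30 min RT; multiplex SureFire p-ERK + total ERK; IC50 via 4PL on ratio.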

KRAS-G12D = KRAS-G12D (Homo sapiens, UniProt P01116, G12D); assay: SOS-catalyzed nucleotide exchange assay (Procedure A, TR-FRET), KRAS-G12D; format: biochemical; settings: nucleotide exchange, read-out: KRAS G12D GNE IC50
Method in brief: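 Signal ratio (520/495 nm, excitation 340 nm) reports Bodipy-GDP retention on biotinylated RAS after SOS-catalyzed exchange with 3 mM GTP. SOS was 40 nM, except 160 nM for G12V. Room-temperature exchange lasted 60 min (90 min for G12V), following a 60 min compound preincubation.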

[1] = amplified wild-type KRAS, 2 hours
[2] = SW-620, 2 hours compound incubation

Sequence of KRAS-G12V (P01116 with tags, fused parts or gaps isoform P01116-2 G12V): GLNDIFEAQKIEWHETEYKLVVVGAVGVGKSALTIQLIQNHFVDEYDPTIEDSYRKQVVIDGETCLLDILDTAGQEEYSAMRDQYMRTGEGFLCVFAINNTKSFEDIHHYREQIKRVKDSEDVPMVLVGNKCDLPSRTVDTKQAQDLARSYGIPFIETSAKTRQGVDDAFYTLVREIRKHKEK
Sequence of KRAS-WT (P01116 with tags, fused parts or gaps isoform P01116-2): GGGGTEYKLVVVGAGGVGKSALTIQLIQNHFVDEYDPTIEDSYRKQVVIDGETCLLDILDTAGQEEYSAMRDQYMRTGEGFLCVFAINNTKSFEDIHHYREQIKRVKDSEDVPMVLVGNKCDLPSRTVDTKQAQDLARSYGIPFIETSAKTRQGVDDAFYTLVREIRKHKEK
Sequence of KRAS-G12D (P01116 with tags, fused parts or gaps isoform P01116-2 G12D): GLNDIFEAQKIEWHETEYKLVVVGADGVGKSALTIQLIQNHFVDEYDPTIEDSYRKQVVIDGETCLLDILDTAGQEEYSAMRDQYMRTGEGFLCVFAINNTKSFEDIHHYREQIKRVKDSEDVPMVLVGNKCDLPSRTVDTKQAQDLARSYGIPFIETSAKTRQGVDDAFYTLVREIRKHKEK

IC50 (MKN-1 cells; 2 hours compound incubation) | IC50 (SW620 cells; [2]) | IC50 (AsPC-1 cells; 2 hours compound incubation) | SMILES | IC50 (MKN-1 cells; [1]) | IC50 (SW620 cells; SW-620, KRAS-G12V, 2 hours) | IC50 (KRAS-G12V) | IC50 (KRAS-WT) | IC50 (AsPC-1 cells; KRAS-G12D, 2 hours) | IC50 (KRAS-G12D)
 |  |  | CCC1c2c(cc3[nH]ncc3c2-c2nccc3c2sc2nc(OC[C@@]45CCCN4C[C@H](F)C5)nc(N4CCOC[C@@](C)(O)C4)c23)CC1(F)F (single isomer, unassigned) [Ex-108] | 28.9 nM | 20.9 nM | 5.41 nM | 3.09 nM | 50 nM | 1.52 nM
 |  |  | CCc1cc2[nH]ncc2c(-c2nccc3c2sc2nc(OC[C@@]45CCCN4C[C@H](F)C5)nc(N4CCOC[C@@](C)(O)C4)c23)c1C1CC1 [Ex-48, (6S)-4-(8-(5-cyclopropyl-6-ethyl-1H-indazol-4-yl)-2-(((2R,7aS)-2-fluorotetrahydro-1H-pyrrolizin-7a(5H)-yl)methoxy)pyrido[4′,3′:4,5]thi-eno[2,3-d]pyrimidin-4-yl)-6-methyl-1,4-oxazepan-6-ol] | 123 nM | 106 nM | 28.5 nM | 50.4 nM | 153 nM | 18.2 nM
51.9 nM | 38.2 nM | 109 nM | CO[C@H]1CN2CCC[C@@]2(COc2nc(N3CCOC[C@@](C)(O)C3)c3c(n2)sc2c(-c4c(C5CC5)c(Cl)cc5[nH]ncc45)nccc23)C1 [Ex-229, (6S)-4-(8-(6-chloro-5-cyclopropyl-1H-indazol-4-yl)-2-(((2R,7aS)-2-meth-oxytetrahydro-1H-pyrrolizin-7a(5H)-yl)methoxy)pyrido [4′,3′:4,5]thieno[2,3-d]pyrimidin-4-yl)-6-methyl-1,4-oxaze-pan-6-ol] |  |  | 19.1 nM | 22.5 nM |  | 6.54 nM
56.9 nM | 61.1 nM | 161 nM | C#CC1=CCCc2cc3[nH]ncc3c(-c3nccc4c3sc3nc(OC[C@@]56CCCN5C[C@H](F)C6)nc(N5CCOC[C@@](C)(O)C5)c34)c21 [Ex-173, (6S)-4-(8-(5-ethynyl-7,8-dihydro-1H-benzo[f]indazol-4-yl)-2-(((2R,7aS)-2-fluorotetrahydro-1H-pyrrolizin-7a(5H)-yl)methoxy)pyrido[4′,3′:4,5]thieno[2,3-d]pyrimidin-4-yl)-6-methyl-1,4-oxazepan-6-ol] |  |  | 50.1 nM | 38.2 nM |  | 18.9 nM
 |  |  | C[C@@]1(O)COCCN(c2nc(OC[C@@]34CCCN3C/C(=C\F)C4)nc3sc4c(-c5c(C6CC6)c(C(F)(F)F)cc6[nH]ncc56)nccc4c23)C1 [Ex-87, (6S)-4-(8-(5-cyclopropyl-6-(trifluoromethyl)-1H-indazol-4-yl)-2-(((S,Z)-2-(fluoromethylene)tetrahy-dro-1H-pyrrolizin-7a(5H)-yl)methoxy)pyrido[4′,3′:4,5]thi-eno[2,3-d]pyrimidin-4-yl)-6-methyl-1,4-oxazepan-6-ol] | 109 nM | 96.6 nM | 31.4 nM | 80 nM | 176 nM | 41.6 nM
 |  |  | Cc1cc2[nH]ncc2c(-c2nccc3c2sc2nc(OC[C@@]45CCCN4C[C@H](F)C5)nc(N4CCOC[C@@](C)(O)C4)c23)c1-c1ccc(F)o1 [Ex-72, (6S)-4-(8-(5-(5-fluorofuran-2-yl)-6-methyl-1H-indazol-4-yl)-2-(((2R,7aS)-2-fluorotetrahydro-1H-pyrrolizin-7a(5H)-yl)methoxy)pyrido[4′,3′:4,5]thi-eno[2,3-d]pyrimidin-4-yl)-6-methyl-1,4-oxazepan-6-ol] | 82.4 nM | 53.8 nM | 35.3 nM | 53.9 nM | 139 nM | 15 nM
84.2 nM | 117 nM | 188 nM | CC1(F)CCN(C[C@@]2(COc3nc(N4CCOC[C@@](C)(O)C4)c4c(n3)sc3c(-c5c(C6(F)CC6)c(Cl)cc6[nH]ncc56)nccc34)CC2(F)F)CC1 [Ex-232, (6S)-4-(8-(6-chloro-5-(1-fluorocyclopropyl)-1H-indazol-4-yl)-2-(((R)-2,2-difluoro-1-((4-fluoro-4-methylpiperidin-1-yl)methyl)cyclopropyl)metho-xy)pyrido[4′,3′:4,5]thieno[2,3-d]pyrimidin-4-yl)-6-methyl-1,4-oxazepan-6-ol] |  |  | 197 nM | 762 nM |  | 104 nM
 |  |  | C[C@@]1(O)COCCN(c2nc(OC[C@@]34CCCN3C[C@H](F)C4)nc3sc4c(-c5c6c(cc7[nH]ncc57)CC=C6C5CC5)nccc4c23)C1 [Ex-105, (6S)-4-(8-(5-cyclopropyl-1,7-dihydrocyclopenta[f]inda-zol-4-yl)-2-(((2R,7aS)-2-fluorotetrahydro-1H-pyrrolizin-7a(5H)-yl)methoxy)pyrido[4′,3′:4,5]thieno[2,3-d]pyrimidin-4-yl)-6-methyl-1,4-oxazepan-6-ol] | 136 nM | 80.5 nM | 37.2 nM | 72.2 nM | 158 nM | 26.7 nM
66.4 nM | 42.9 nM | 48.3 nM | C[C@@]1(O)COCCN(c2nc(OC[C@]3(CN4CC5(COC5)C4)CC3(F)F)nc3sc4c(-c5c(C6CC6)c(Cl)cc6[nH]ncc56)nccc4c23)C1 [Ex-213, (6S)-4-(2-(((R)-1-((2-oxa-6-azaspiro [3.3]heptan-6-yl)-methyl)-2,2-difluoro-cyclopropyl)meth-oxy)-8-(6-chloro-5-cyclopropyl-1H-indazol-4-yl)pyrido [4′,3′:4,5]thieno [2,3-d]pyrimidin-4-yl)-6-methyl-1,4-oxazepan-6-ol] |  |  | 11.2 nM | 12.2 nM |  | 3.5 nM
 |  |  | Cc1cc2[nH]ncc2c(-c2nccc3c2sc2nc(OC[C@@]45CCCN4C[C@H](F)C5)nc(N4CCOC[C@@](C)(O)C4)c23)c1C1(F)CC1 [Ex-54, (6S)-4-(8-(5-(1-fluorocyclopropyl)-6-methyl-1H-indazol-4-yl)-2-(((2R,7aS)-2-fluorotetrahydro-1H-pyrrolizin-7a(5H)-yl)methoxy)pyrido[4′,3′:4,5]thi-eno[2,3-d)pyrimidin-4-yl)-6-methyl-1,4-oxazepan-6-ol] | 56.5 nM | 186 nM | 11.1 nM | 10.8 nM | 84.6 nM | 5.06 nM
 |  |  | C[C@@]1(O)COCCN(c2nc(OC[C@@]34CCCN3C[C@H](F)C4)nc3c(F)c4c(-c5c(C6CC6)c(Cl)cc6[nH]ncc56)nccn4c23)C1 [Ex-305, (S)-4-(9-(6-chloro-5-cyclopropyl-1H-indazol-4-yl)-10-fluoro-2-(((2R,7aS)-2-fluorotetrahydro-1H-pyrrolizin-7a(5H)-yl)methoxy)pyrazino[1′,2′:1,5]pyrrolo[3,2-d]pyrimidin-4-yl)-6-methyl-1,4-oxazepan-6-ol] | 93 nM | 54.7 nM | 23.8 nM | 37 nM | 212 nM | 11.6 nM
